“Also recorded” adds a separate entry of the source.
Experiments:
[1] = test system: primary human keratinocytes; assay: CXCL14 and CCL5 protein concentration by ELISA assay in primary human keratinocytes; format: cell-based
Method: Another objective of the present study was to identify the effect of ivermectin on the CXCL14 and CCL5 protein level of
(§1) To do this, primary human keratinocytes were cultured with various concentrations of EGFR inhibitor (in this case erlotinib) each with +/− TNF-α/IL-1β, various concentrations of ivermectin alone each with +/− TNF-α/IL-1β various concentrations of erlotinib and of ivermectin each with +/− TNF-α/IL-1β. The addition of the pro-inflammatory cytokines TNFα and IL1β makes it possible to mimic the skin inflammation.
(§2) The various concentrations used were the following: • Erlotinib: 0-0.1 μM-1 μM-10 μM (each with +/− TNF-α/IL-1β) • Ivermectin: 0-0.1 μM-1 μM-10 μM (each with +/− TNF-α/IL-1β) • Co-stimulation: • Erlotinib (0.1 μM)+Ivermectin (1 μM) (+/− TNF-α/IL-1β) • Erlotinib (0.1 μM)+Ivermectin (5 μM) (+/− TNF-α/IL-1β) • Erlotinib (1 μM)+Ivermectin (1 μM)+/− TNF-α/IL-1β) • Erlotinib (1 μM)+Ivermectin (5 μM) (+/− TNF-α/IL-1β)
(§3) The expression of the CXCL14, CCL5 (chemokines), RNase 7, HBD3 and LL37 (antimicrobial peptides) genes was analyzed by quantitative PCR. The protein concentration of the chemokines CXCL14 and CCL5 was quantified using an ELISA assay.

[2] = test system: primary human keratinocytes; assay: Gene expression by quantitative PCR in primary human keratinocytes treated with erlotinib and/or ivermectin +/- TNF-α/IL-1β; format: cell-based
Method: A study was carried out on primary human keratinocytes in vitro, in order to determine the effect of ivermectin on the regulation of genes of which the expression has been identified as being modulated by EGFR inhibitors. Said genes identified are the pro-inflammatory chemokines CCL2, CCL5, CCL27 and CXCL14 and the cytokines of the IL-1β family, but also the genes of antimicrobial peptides RNase7, HBD3 and LL37.
as §1, §2, §3

[3] = ivermectin in combination with erlotinib, +/- TNFα/IL1β
[4] = erlotinib and TNFα/IL1β, without ivermectin
[5] = erlotinib without ivermectin, listed as erlitonib

| SMILES | CXCL14 protein level (ELISA) ([1]; ivermectin in combination with erlotinib and TNFα/IL1β) | expression of CCL5 (gene, quantitative PCR) [2, 3] | expression of CXCL14 (gene, quantitative PCR) [2, 3] | expression of HBD3 (gene, quantitative PCR) [2, 3] | expression of RNase 7 (gene, quantitative PCR) ([2]; ivermectin in combination with erlotinib, various concentrations) | CCL5 protein concentration (ELISA) [1, 4] | CXCL14 protein concentration (ELISA) [1, 4] | expression of CCL5 (gene, quantitative PCR) ([2]; erlotinib without ivermectin) | expression of CXCL14 (gene, quantitative PCR) ([2]; erlotinib without ivermectin) | expression of HBD3 (gene, quantitative PCR) ([2]; erlotinib without ivermectin) | expression of RNase 7 (gene, quantitative PCR) ([2]; erlotinib without ivermectin) | expression of CCL5 (gene, quantitative PCR) [2, 5] | expression of CXCL14 (gene, quantitative PCR) [2, 5] |
| --- | --- | --- | --- | --- | --- | --- | --- | --- | --- | --- | --- | --- | --- |
| CC[C@H](C)[C@H]1O[C@]2(CC[C@@H]1C)C[C@@H]1C[C@@H](C/C=C(\C)[C@@H](O[C@H]3C[C@H](OC)[C@@H](O[C@H]4C[C@H](OC)[C@@H](O)[C@H](C)O4)[C@H](C)O3)[C@@H](C)/C=C/C=C3\CO[C@@H]4[C@H](O)C(C)=C[C@@H](C(=O)O1)[C@]34O)O2 [ivermectin] | decrease the protein level | significant modification of the induction; also recorded: reduce the overexpression | significant modification of the induction; also recorded: reduce the overexpression | induce the expression | re-establish the expression of RNase 7 greatly decreased in the presence of erlotinib but also to induce a strong expression thereof | – | – | – | – | – | – | – | – |
| C#Cc1cccc(Nc2ncnc3cc(OCCOC)c(OCCOC)cc23)c1 [erlotinib] | – | – | – | – | – | increase | increase | induction | induction | decreased | greatly decreased | overexpression | overexpression |
